The values that follow come from US20160039871A1, “NOVEL FORMS OF TELAPREVIR” (SANDOZ AG, priority 2012, published 2016).

This data set is described as follows: moisture sorption (Dynamic Vapor Sorption), water content versus relative humidity. The class given is physicochemical. The method, then: The moisture sorption isotherms were recorded with a SPS-11 moisture sorption analyzer (MD Messtechnik, Ulm, D). […] The equilibrium condition for each step was set to a mass constancy of ±0.005% over 60 min. The temperature was 25±0.1° C.

Each structure is given as a SMILES string.

Consider `CCC[C@H](NC(=O)[C@@H]1[C@H]2CCC[C@H]2CN1C(=O)[C@@H](NC(=O)[C@@H](NC(=O)c1cnccn1)C1CCCCC1)C(C)(C)C)C(=O)C(=O)NC1CC1` [Form C, (1S,3aR,6aS)-2-[(2S)-2-[[(2S)-2-Cyclohexyl-2-(pyrazine-2-carbonylamino)acetyl]amino]-3,3-dimethylbutanoyl]-N-[(3S)-1-(cyclopropylamino)-1,2-dioxohexan-3-yl]-3,3a,4,5,6,6a-hexahydro-1H-cyclopenta[c]pyrrole-1-carboxamide], for which the water content entry is reported as “about 0.5 moles of water” (relative humidity of about 40%) and “about 0.9 moles of water” (relative humidity of about 70%-80%).
